The results in this text go back to publication PMC5218480 (PLoS ONE, 2017).

In this experiment the test system is MV-4-11 cells. Nature of the experiment: Gene expression microarray analysis (Affymetrix PrimeView) and GSEA. Also on record: RFU PODN (11730768_x_at) / Fold change /veh PODN (11730768_x_at) / RFU LINC00158 (11744669_a_at) / Fold change /veh LINC00158 (11744669_a_at) / RFU DUSP10 (11751237_a_at) / Fold change /veh DUSP10 (11751237_a_at) / RFU ID3 (11757404_x_at) / Fold change /veh ID3 (11757404_x_at) / RFU PLEKHG5 (11737974_s_at) / Fold change /veh PLEKHG5 (11737974_s_at) / RFU LRRC4B (11730491_at) / Fold change /veh LRRC4B (11730491_at) / RFU GIMAP4 (11747438_a_at) / Fold change /veh GIMAP4 (11747438_a_at) / RFU KRT8 (11758183_x_at) / Fold change /veh KRT8 (11758183_x_at) / RFU CNN1 (11734310_a_at) / Fold change /veh CNN1 (11734310_a_at) / RFU VPS37D (11726825_at) / Fold change /veh VPS37D (11726825_at) / RFU C10orf10 (11716522_x_at) / Fold change /veh C10orf10 (11716522_x_at) / RFU KIR2DL2 /// KIR2DL4 /// KIR2DL5A /// KIR2DL5B /// KIR2DS1 /// KIR2DS2 /// KIR2DS3 /// KIR2DS4 /// KIR3DL3 /// KIR3DL3 /// KIR3DS1 (11738374_at) / Fold change /veh KIR2DL2 /// KIR2DL4 /// KIR2DL5A /// KIR2DL5B /// KIR2DS1 /// KIR2DS2 /// KIR2DS3 /// KIR2DS4 /// KIR3DL3 /// KIR3DL3 /// KIR3DS1 (11738374_at) / RFU C1QL1 (11718748_at) / Fold change /veh C1QL1 (11718748_at) / RFU TMPRSS4 (11747572_a_at) / Fold change /veh TMPRSS4 (11747572_a_at) / RFU HAMP (11756126_x_at) / Fold change /veh HAMP (11756126_x_at) / RFU RNFT2 (11725882_a_at) / Fold change /veh RNFT2 (11725882_a_at) / RFU NR4A2 (11747474_a_at) / Fold change /veh NR4A2 (11747474_a_at) / RFU ABCC12 (11746883_a_at) / Fold change /veh ABCC12 (11746883_a_at) / RFU TMEM136 (11760407_x_at) / Fold change /veh TMEM136 (11760407_x_at) / RFU CLDN22 /// WWC2 (11732394_at) / Fold change /veh CLDN22 /// WWC2 (11732394_at) / RFU HLA-DPB1 (11760878_x_at) / Fold change /veh HLA-DPB1 (11760878_x_at) / RFU SPINT1 (11716480_a_at) / Fold change /veh SPINT1 (11716480_a_at) / RFU GAP43 (11754022_s_at) / Fold change /veh GAP43 (11754022_s_at) / RFU A4GNT (11735810_at) / Fold change /veh A4GNT (11735810_at) / RFU PRB3 (11715151_x_at) / Fold change /veh PRB3 (11715151_x_at) / RFU TUBB4B (11761932_at) / Fold change /veh TUBB4B (11761932_at) / RFU CAPN14 (11732068_a_at) / Fold change /veh CAPN14 (11732068_a_at) / RFU TMCC2 (11721928_a_at) / Fold change /veh TMCC2 (11721928_a_at) / RFU IRGQ (11745062_a_at) / Fold change /veh IRGQ (11745062_a_at) / RFU FAM174B (11720279_a_at) / Fold change /veh FAM174B (11720279_a_at) / RFU TMPRSS4 (11748680_a_at) / Fold change /veh TMPRSS4 (11748680_a_at) / RFU FAM212B (11763350_a_at) / Fold change /veh FAM212B (11763350_a_at) / RFU PLEKHG5 (11743358_a_at) / Fold change /veh PLEKHG5 (11743358_a_at) / RFU ZSCAN30 (11745921_a_at) / Fold change /veh ZSCAN30 (11745921_a_at) / RFU CMKLR1 (11741424_a_at) / Fold change /veh CMKLR1 (11741424_a_at) / RFU LOC101060620 /// MAPK8IP1 (11723275_at) / Fold change /veh LOC101060620 /// MAPK8IP1 (11723275_at) / RFU SPTSSB (11747773_x_at) / Fold change /veh SPTSSB (11747773_x_at) / RFU PRSS12 (11739890_at) / Fold change /veh PRSS12 (11739890_at) / RFU BIN1 (11741810_x_at) / Fold change /veh BIN1 (11741810_x_at) / RFU WNT11 (11732464_a_at) / Fold change /veh WNT11 (11732464_a_at) / RFU C10orf10 (11716521_a_at) / Fold change /veh C10orf10 (11716521_a_at) / RFU C5orf56 (11738089_at) / Fold change /veh C5orf56 (11738089_at) / RFU CYB561 (11721691_x_at) / Fold change /veh CYB561 (11721691_x_at) / RFU ANKRD19P (11752326_a_at) / Fold change /veh ANKRD19P (11752326_a_at) / RFU OR2T12 /// OR2T33 /// OR2T8 (11738714_s_at) / Fold change /veh OR2T12 /// OR2T33 /// OR2T8 (11738714_s_at) / RFU VCAN (11748164_a_at) / Fold change /veh VCAN (11748164_a_at) / RFU JSRP1 (11732532_at) / Fold change /veh JSRP1 (11732532_at) / RFU KRTAP10-11 (11738290_x_at) / Fold change /veh KRTAP10-11 (11738290_x_at) / RFU MYO3A (11730013_a_at) / Fold change /veh MYO3A (11730013_a_at) / RFU EBF3 (11725865_a_at) / Fold change /veh EBF3 (11725865_a_at) / RFU CAMK2N1 (11719241_x_at) / Fold change /veh CAMK2N1 (11719241_x_at) / RFU C5orf56 (11738088_a_at) / Fold change /veh C5orf56 (11738088_a_at) / RFU OLFML3 (11715873_a_at) / Fold change /veh OLFML3 (11715873_a_at) / RFU LOC100653217 /// NTM (11731650_a_at) / Fold change /veh LOC100653217 /// NTM (11731650_a_at) / RFU MAPK11 (11762145_a_at) / Fold change /veh MAPK11 (11762145_a_at) / RFU FIZ1 (11724087_x_at) / Fold change /veh FIZ1 (11724087_x_at) / RFU OASL (11726364_x_at) / Fold change /veh OASL (11726364_x_at) / RFU SOX15 (11748057_x_at) / Fold change /veh SOX15 (11748057_x_at) / RFU CD79A (11719716_a_at) / Fold change /veh CD79A (11719716_a_at) / RFU HIST1H1D (11736915_at) / Fold change /veh HIST1H1D (11736915_at) / RFU CASKIN2 (11723855_a_at) / Fold change /veh CASKIN2 (11723855_a_at) / RFU LOC730098 (11760151_x_at) / Fold change /veh LOC730098 (11760151_x_at) / RFU OR4N2 (11742367_at) / Fold change /veh OR4N2 (11742367_at) / RFU PRRT2 (11749266_a_at) / Fold change /veh PRRT2 (11749266_a_at) / RFU SNX32 (11753110_a_at) / Fold change /veh SNX32 (11753110_a_at) / RFU CDHR5 (11726645_a_at) / Fold change /veh CDHR5 (11726645_a_at) / RFU RCAN1 (11760418_a_at) / Fold change /veh RCAN1 (11760418_a_at) / RFU FAM167A (11723789_a_at) / Fold change /veh FAM167A (11723789_a_at) / RFU FAM26E (11764081_at) / Fold change /veh FAM26E (11764081_at) / RFU ISYNA1 (11749810_s_at) / Fold change /veh ISYNA1 (11749810_s_at) / RFU ACY1 (11761880_at) / Fold change /veh ACY1 (11761880_at) / RFU 11764098_at / Fold change /veh 11764098_at / RFU SAMD14 (11745864_x_at) / Fold change /veh SAMD14 (11745864_x_at) / RFU NPB (11741838_a_at) / Fold change /veh NPB (11741838_a_at) / RFU TMPRSS6 (11731388_a_at) / Fold change /veh TMPRSS6 (11731388_a_at) / RFU KRTAP10-2 (11738614_at) / Fold change /veh KRTAP10-2 (11738614_at) / RFU ARHGAP8 /// PRR5-ARHGAP8 (11727945_x_at) / Fold change /veh ARHGAP8 /// PRR5-ARHGAP8 (11727945_x_at) / RFU KRTAP5-7 /// NADSYN1 (11734609_at) / Fold change /veh KRTAP5-7 /// NADSYN1 (11734609_at) / RFU RASL12 (11751679_a_at) / Fold change /veh RASL12 (11751679_a_at) / RFU CDKN2B (11736163_a_at) / Fold change /veh CDKN2B (11736163_a_at) / RFU PRF1 (11729649_at) / Fold change /veh PRF1 (11729649_at) / RFU, ZNF638 /// ZNF638-IT1 / Fold change vs veh, ZNF638 /// ZNF638-IT1 / RFU, PANK3 / Fold change vs veh, PANK3 / RFU, SH3YL1 / Fold change vs veh, SH3YL1 / RFU, ZEB2 / Fold change vs veh, ZEB2 / RFU, NRIP1 / Fold change vs veh, NRIP1 / RFU, PTTG1IP / Fold change vs veh, PTTG1IP / RFU, CAPN2 / Fold change vs veh, CAPN2 / RFU, MED14 / Fold change vs veh, MED14 / RFU, SNORA58 / Fold change vs veh, SNORA58 / RFU, C1orf63 / Fold change vs veh, C1orf63 / RFU, LRRFIP1 / Fold change vs veh, LRRFIP1 / RFU, NDUFAF7 / Fold change vs veh, NDUFAF7 / RFU, SLC12A2 / Fold change vs veh, SLC12A2 / RFU, IBTK / Fold change vs veh, IBTK / RFU, ESF1 / Fold change vs veh, ESF1 / Fold change vs veh, TMEM50B / RFU, TAOK1 / Fold change vs veh, TAOK1 / RFU, ACBD3 / Fold change vs veh, ACBD3 / RFU, TMA16 / Fold change vs veh, TMA16 / RFU, RWDD3 / Fold change vs veh, RWDD3 / RFU, BCAT1 / Fold change vs veh, BCAT1 / RFU, EDEM3 / Fold change vs veh, EDEM3 / RFU, TMEM33 / Fold change vs veh, TMEM33 / RFU, WDR75 / Fold change vs veh, WDR75 / RFU, AHCTF1 / Fold change vs veh, AHCTF1 / RFU, TFRC / Fold change vs veh, TFRC / RFU, ZDHHC17 / Fold change vs veh, ZDHHC17 / RFU, NOM1 / Fold change vs veh, NOM1 / RFU, ARL8B / Fold change vs veh, ARL8B / RFU, ZBTB11 / Fold change vs veh, ZBTB11 / RFU, TAMM41 / Fold change vs veh, TAMM41 / RFU, KIAA1704 /// LOC100996395 / Fold change vs veh, KIAA1704 /// LOC100996395 / RFU, ING1 / Fold change vs veh, ING1 / RFU, TRMT61B / Fold change vs veh, TRMT61B / RFU, FUBP3 / Fold change vs veh, FUBP3 / RFU, TP53 / Fold change vs veh, TP53 / RFU, TNKS2 / Fold change vs veh, TNKS2 / RFU, ZFP14 / Fold change vs veh, ZFP14 / RFU, ACTR2 / Fold change vs veh, ACTR2 / RFU, PPP3R1 / Fold change vs veh, PPP3R1 / RFU, PIK3R1 / Fold change vs veh, PIK3R1 / RFU, HNRNPA1 / Fold change vs veh, HNRNPA1 / RFU, RNF170 / Fold change vs veh, RNF170 / RFU, ZNF28 / Fold change vs veh, ZNF28 / RFU, RNGTT / Fold change vs veh, RNGTT / RFU, OGT / Fold change vs veh, OGT / RFU, BRD1 / Fold change vs veh, BRD1 / RFU, MARS / Fold change vs veh, MARS / RFU, ZNF655 / Fold change vs veh, ZNF655 / RFU, FAHD1 / Fold change vs veh, FAHD1 / RFU, BDP1 / Fold change vs veh, BDP1 / RFU, LRRCC1 / Fold change vs veh, LRRCC1 / RFU, ARID1A / Fold change vs veh, ARID1A / RFU, ZNF146 / Fold change vs veh, ZNF146 / RFU, ZNF330 / Fold change vs veh, ZNF330 / RFU, GPN3 / Fold change vs veh, GPN3 / RFU, C9orf123 / Fold change vs veh, C9orf123 / RFU, N4BP2L2 / Fold change vs veh, N4BP2L2 / RFU, ARFIP1 / Fold change vs veh, ARFIP1 / RFU, FAM179B / Fold change vs veh, FAM179B / RFU, BCL10 / Fold change vs veh, BCL10 / RFU, UHRF1BP1L / Fold change vs veh, UHRF1BP1L / RFU, BET1 / Fold change vs veh, BET1 / RFU, CNOT2 / Fold change vs veh, CNOT2 / RFU, ZNF268 / Fold change vs veh, ZNF268 / Fold change vs veh, ZNF507 / RFU, DGCR2 / Fold change vs veh, DGCR2 / RFU, WDSUB1 / Fold change vs veh, WDSUB1 / Fold change vs veh, HSP90B1 /// MIR3652 / RFU, ADSS / Fold change vs veh, ADSS / RFU, GK / Fold change vs veh, GK / RFU, ZNF148 / Fold change vs veh, ZNF148 / RFU, TAF9 / Fold change vs veh, TAF9 / RFU, SLC1A5 / Fold change vs veh, SLC1A5 / RFU, SLMO2 / Fold change vs veh, SLMO2 / RFU, ABCC4 / Fold change vs veh, ABCC4 / RFU, LOC101060439 /// RAP1B / Fold change vs veh, LOC101060439 /// RAP1B / RFU, RFX7 / Fold change vs veh, RFX7 / RFU, GTPBP10 / Fold change vs veh, GTPBP10 / RFU, CNEP1R1 / Fold change vs veh, CNEP1R1 / RFU, BIVM-ERCC5 /// ERCC5 / Fold change vs veh, BIVM-ERCC5 /// ERCC5 / RFU, ILF3 / Fold change vs veh, ILF3 / RFU 11762660_at / Fold change /veh 11762660_at / RFU VCAN (11757783_s_at) / Fold change /veh VCAN (11757783_s_at) / RFU DDX43 (11728927_at) / Fold change /veh DDX43 (11728927_at) / RFU KRT8 (11758188_x_at) / Fold change /veh KRT8 (11758188_x_at) / RFU NKD1 (11759106_at) / Fold change /veh NKD1 (11759106_at) / RFU SRD5A1 (11742802_a_at) / Fold change /veh SRD5A1 (11742802_a_at) / RFU TPSAB1 /// TPSB2 (11721975_s_at) / Fold change /veh TPSAB1 /// TPSB2 (11721975_s_at) / RFU GSTM3 (11746129_a_at) / Fold change /veh GSTM3 (11746129_a_at) / RFU IL23R (11737362_x_at) / Fold change /veh IL23R (11737362_x_at) / RFU TMEM51 (11727254_a_at) / Fold change /veh TMEM51 (11727254_a_at) / RFU PIWIL2 (11732686_x_at) / Fold change /veh PIWIL2 (11732686_x_at) / RFU ORM1 (11744905_x_at) / Fold change /veh ORM1 (11744905_x_at) / RFU CCDC152 (11743942_at) / Fold change /veh CCDC152 (11743942_at) / RFU ECM1 (11717891_a_at) / Fold change /veh ECM1 (11717891_a_at) / RFU IL23R (11748794_a_at) / Fold change /veh IL23R (11748794_a_at) / RFU TNFAIP8L3 (11732012_x_at) / Fold change /veh TNFAIP8L3 (11732012_x_at) / RFU MBOAT4 (11741988_at) / Fold change /veh MBOAT4 (11741988_at) / RFU 11764193_at / Fold change /veh 11764193_at / RFU TMEM53 (11763286_at) / Fold change /veh TMEM53 (11763286_at) / RFU MAGEB2 (11727129_at) / Fold change /veh MAGEB2 (11727129_at) / RFU TMEM200A (11744735_a_at) / Fold change /veh TMEM200A (11744735_a_at) / RFU CCDC152 (11751479_a_at) / Fold change /veh CCDC152 (11751479_a_at) / RFU FAM211A (11726209_a_at) / Fold change /veh FAM211A (11726209_a_at) / RFU RGS16 (11746705_a_at) / Fold change /veh RGS16 (11746705_a_at) / RFU VCAN (11755009_s_at) / Fold change /veh VCAN (11755009_s_at) / RFU RHOB (11743442_s_at) / Fold change /veh RHOB (11743442_s_at) / RFU RGS16 (11720943_a_at) / Fold change /veh RGS16 (11720943_a_at) / RFU RGS16 (11720944_at) / Fold change /veh RGS16 (11720944_at) / RFU, VPS4B / Fold change vs veh, VPS4B / RFU, CREB1 / Fold change vs veh, CREB1 / RFU, DNAJC13 / Fold change vs veh, DNAJC13 / RFU, GNAQ / Fold change vs veh, GNAQ / RFU, CDK5R1 / Fold change vs veh, CDK5R1 / RFU, ZRANB3 / Fold change vs veh, ZRANB3 / RFU, CUL4A / Fold change vs veh, CUL4A / RFU, CCNY / Fold change vs veh, CCNY / RFU, UFL1 / Fold change vs veh, UFL1 / RFU, COG3 / Fold change vs veh, COG3 / RFU, DIAPH2 / Fold change vs veh, DIAPH2 / RFU, SKA2 / Fold change vs veh, SKA2 / RFU, AFF3 / Fold change vs veh, AFF3 / RFU, LMF1 / Fold change vs veh, LMF1 / RFU, IPO11 / Fold change vs veh, IPO11 / RFU, DFFB / Fold change vs veh, DFFB / RFU, FOXP1 / Fold change vs veh, FOXP1 / RFU, CARD8 / Fold change vs veh, CARD8 / RFU, STRN3 / Fold change vs veh, STRN3 / RFU, ADK / Fold change vs veh, ADK / RFU, RASSF2 / Fold change vs veh, RASSF2 / RFU, WIPF1 / Fold change vs veh, WIPF1 / RFU, LARP1B / Fold change vs veh, LARP1B / RFU, RASA1 / Fold change vs veh, RASA1 / RFU, RB1 / Fold change vs veh, RB1 / RFU, PPFIA1 / Fold change vs veh, PPFIA1 / RFU, MAT2A / Fold change vs veh, MAT2A / RFU, CCT5 / Fold change vs veh, CCT5 / RFU, WDR92 / Fold change vs veh, WDR92 / RFU, CUX1 / Fold change vs veh, CUX1 / RFU, TTC7A / Fold change vs veh, TTC7A / RFU, TMEM135 / Fold change vs veh, TMEM135 / RFU, DEPTOR / Fold change vs veh, DEPTOR / RFU, CPM / Fold change vs veh, CPM / RFU, DNAJB6 / Fold change vs veh, DNAJB6 / RFU, CACNA2D3 / Fold change vs veh, CACNA2D3 / RFU, DTX4 / Fold change vs veh, DTX4 / RFU, TFCP2 / Fold change vs veh, TFCP2 / RFU, GMCL1 /// GMCL1P1 / Fold change vs veh, GMCL1 /// GMCL1P1 / RFU, AEBP2 / Fold change vs veh, AEBP2 / RFU, SNHG1 /// SNORD22 /// SNORD25 /// SNORD26 /// SNORD27 /// SNORD28 /// SNORD29 /// SNORD31 / Fold change vs veh, SNHG1 /// SNORD22 /// SNORD25 /// SNORD26 /// SNORD27 /// SNORD28 /// SNORD29 /// SNORD31 / Fold change (Aza/veh), C12orf56 (ProbeSet 11735607_a_at) / Fold change (ACY-1035/veh), C12orf56 (ProbeSet 11735607_a_at) / Fold change (Aza/veh), FGFR1OP (ProbeSet 11751329_s_at) / Fold change (ACY-1035/veh), FGFR1OP (ProbeSet 11751329_s_at) / Fold change (Aza/veh), VPS36 (ProbeSet 11739960_a_at) / Fold change (ACY-1035/veh), VPS36 (ProbeSet 11739960_a_at) / RFU SYPL1 (11715823_x_at) / Fold change /veh SYPL1 (11715823_x_at) / RFU IGFBP7 (11715501_s_at) / Fold change /veh IGFBP7 (11715501_s_at) / RFU REEP3 (11722064_at) / Fold change /veh REEP3 (11722064_at) / RFU IGLL1 (11728026_x_at) / Fold change /veh IGLL1 (11728026_x_at): dose or concentration left out as unconfirmed. The settings on record: MV-4-11 cells, 48 hours. It counts as cell-based, human.

SMILES strings stand for the structures.

For the molecule `Nc1ccc(-c2cccs2)cc1NC(=O)c1ccc2c(c1)cc(C1CC1)n2CCN1CCOCC1` [ACY-1035], the “RFU MBOAT4 (11741988_at)” value came to 8.81 RFU.
